Laboratory results from patent publication US20230365526A1, “PYRIDAZINE DERIVATIVES FOR MODULATING NUCLEIC ACID SPLICING” (REMIX THERAPEUTICS INC., priority 2020, published 2023).
Where a name gives a salt, the structure may show the parent alone. Read-outs that look alike come from different tables or passages of the source.

Tests used:
Type in all cases: cell-based
HTT mRNA = test: RT-qPCR splicing assay monitoring HTT canonical (CJ) and alternative (AJ) junction mRNA in A673 or K562 cells; details: 24 hours compound treatment, top dose 10 uM
Experimental: (§1) Compounds described herein were used to modulate RNA transcript abundance in cells. The expression of a target mRNA was measured by detecting the formation of an exon-exon junction in the canonical transcript (CJ). A compound mediated exon-inclusion event was detected by observing an increase in formation of a new junction with an alternative exon (AJ). Real-time qPCR assays were used to detect these splicing switches and interrogate the potency of various compounds towards different target genes. A high-throughput real time quantitative PCR (RT-qPCR) assay was developed to measure these two isoforms of the mRNA (CJ and AJ) for an exemplary gene, HTT, together with a control housekeeping gene, GAPDH or GUSB or PPIA, used for normalization. Briefly, the A673 or K562 cell line was treated with various compounds described herein (e.g., compounds of Formula (I)). After treatment, the levels of the HTT mRNA targets were determined from each sample of cell lysate by cDNA synthesis followed by qPCR.
• Cells-to-CT 1-step kit: ThermoFisher A25602, Cells-to-CT lysis reagent: ThermoFisher 4391851C, TaqMan™ Fast Virus 1-Step Master Mix: ThermoFisher 4444436 • GAPDH: VIC-PL, ThermoFisher 4326317E (Assay: Hs99999905_m1)—used for K562/suspension cell lines • GUSB: VIC-PL, ThermoFisher 4326320E (Assay: Hs99999908_m1)—used for K562/suspension cell lines • PPIA: VIC-PL, ThermoFisher 4326316E (Assay: Hs99999904_m1)—used for A673/adherent cell lines
(§2) The A673 cell line was cultured in DMEM with 10% FBS. Cells were diluted with full growth media and plated in a 96-well plate (15,000 cells in 100 ul media per well). The plate was incubated at 37° C. with 5% CO2 for 24 hours to allow cells to adhere. An 11-point 3-fold serial dilution of the compounds was made in DMSO then diluted in media in an intermediate plate. Compounds were transferred from the intermediate plate to the cell plate with the top dose at a final concentration of 10 uM in the well. Final DMSO concentration was kept at or below 0.25%. The cell plate was returned to the incubator at 37° C. with 5% CO2 for an additional 24 hours.
(§3) The K562 cell line was cultured in IMDM with 10% FBS. For K562, cells were diluted with full growth media and plated in either a 96-well plate (50,000 cells in 50 uL media per well) or a 384-well plate (8,000-40,000 cells in 45 uL media per well). An 11-point 3-fold serial dilution of the compounds were made in DMSO then diluted in media in an intermediate plate. Compound was transferred from the intermediate plate to the cell plate with the top dose at a final concentration of 10 uM in the well. Final DMSO concentration was kept at or below 0.25%. Final volume was 100 uL for 96-well plate and 50 uL for 384-well plate. The cell plate was then placed in an incubator at 37° C. with 5% CO2 for 24 hours.
(§4) The cells were then gently washed with 50 uL-100 uL cold PBS before proceeding to addition of lysis buffer. 30 uL-50 uL of room temperature lysis buffer with DNAse I (and optionally RNAsin) was added to each well. Cells were shaken/mixed thoroughly at room temperature for 5-10 minutes for lysis to take place and then 3 uL-5 uL of room temperature stop solution was added and wells were shaken/mixed again. After 2-5 minutes, the cell lysate plate was transferred to ice for RT-qPCR reaction setup. The lysates could also be frozen at −80° C. for later use.
In some cases, a direct lysis buffer was used. An appropriate volume of 3×lysis buffer (10 mM Tris, 150 mM NaCl, 1.5%-2.5% Igepal and 0.1-1 U/uL RNAsin, pH 7.4) was directly added to either K562 or A673 cells in media and mixed by pipetting 3 times. The plates were then incubated at room temperature with shaking/rocking for 20-50 minutes to allow for lysis to take place. After this time, the cell lysate plate was transferred to ice to set up for the RT-qPCR reactions. The lysates could also be frozen at −80° C. for later use. […]

HTT = test: Gene panel canonical junction RT-qPCR assay: HTT; details: read-out: HTT (IC50, decrease in CJ mRNA levels)
Experimental: as §1, §2, §3, §4
(§5) In some cases, a direct lysis buffer was used. An appropriate volume of 3×lysis buffer (10 mM Tris, 150 mM NaCl, 1.5%-2.5% Igepal and 0.1-1 U/uL RNAsin, pH 7.4) was directly added to either K562 or A673 cells in media and mixed by pipetting 3 times. The plates were then incubated at room temperature with shaking/rocking for 20-50 minutes to allow for lysis to take place. After this time, the cell lysate plate was transferred to ice to set up for the RT-qPCR reactions. The lysates could also be frozen at −80° C. for later use.
(§6) To set up 10 uL RT-qPCR reactions, cell lysates were transferred to 384-well qPCR plates containing the master mix according to the table below. The plates were sealed, gently vortexed, and spun down before the run. The volumes were adjusted accordingly in some instances where the reaction was carried in 20 uL. The table below summarizes the components of the RT-qPCR reactions:
(§7) The RT-qPCR reaction was performed using a QuantStudio (ThermoFisher) under the following fast cycling conditions. […]

SMN2 = test: Gene panel canonical junction RT-qPCR assay: SMN2; details: read-out: SMN2 (IC50, decrease in CJ mRNA levels)
Experimental: as §1, §2, §3, §4, §5, §6, §7

Target C = test: Gene panel canonical junction RT-qPCR assay: Target C; details: read-out: Target C (IC50, decrease in CJ mRNA levels)
Experimental: as §1, §2, §3, §4, §5, §6, §7

[1] = decrease in CJ mRNA, read-out: HTT CJ AC50
[2] = increase in AJ mRNA, read-out: HTT AJ AC50

SMILES	AC50 (HTT mRNA; [1])	AC50 (HTT mRNA; [2])	IC50 (HTT)	IC50 (SMN2)	IC50 (Target C)
COc1nc(-c2ccc(N(C)[C@@H]3CCN[C@H](C)C3)nn2)ccc1-c1cn[nH]c1 [Compound 136, 6-[6-methoxy-5-(1H-pyrazol-4-yl)pyridin-2-yl]-N-methyl-N-[(2R,4R)-2-methylpiperidin-4-yl]pyridazin-3-amine]	1000 to 10000 nM	1000 to 10000 nM	1000 to 10000 nM	100 to 1000 nM	
Cc1nc(-c2ccc(N(C)[C@@H]3C[C@H]4CC[C@@H](C3)N4)nn2)ccc1-c1cn[nH]c1 [Compound 171]	1000 to 10000 nM	1000 to 10000 nM	1000 to 10000 nM	100 to 1000 nM	1000 to 10000 nM
COc1nc(-c2ccc(N(C)[C@@H]3C[C@H]4CC[C@@H](C3)N4)nn2)ccc1-n1cccn1 [Compound 134, (1R,3S,5S)—N-[6-[6-methoxy-5-(pyrazol-1-yl)pyridin-2-yl]pyridazin-3-yl]-N-methyl-8-azabicyclo[3.2.1]octan-3-amine]	100 to 1000 nM	100 to 1000 nM	100 to 1000 nM	100 to 1000 nM	> 10000 nM
CN(c1ccc(-c2ccc(-n3cccn3)c(=O)[nH]2)nn1)[C@@H]1C[C@H]2CC[C@@H](C1)N2 [Compound 130, 6-[6-[(1R,3S,5S)-8-azabicyclo[3.2.1]octan-3-yl(methyl)amino]pyridazin-3-yl]-3-(pyrazol-1-yl)-1H-pyridin-2-one]	100 to 1000 nM	1000 to 10000 nM	100 to 1000 nM	1000 to 10000 nM	< 100 nM
CN(c1ccc(-c2ccc(-c3cn[nH]c3)c(F)n2)nn1)[C@@H]1C[C@H]2CC[C@@H](C1)N2 [Compound 249, (1R,3R,5S)—N-{6-[6-fluoro-5-(1H-pyrazol-4-yl)pyridin-2-yl]pyridazin-3-yl}-N-methyl-8-azabicyclo[3.2.1]octan-3-amine hydrochloride]	< 100 nM	< 100 nM	< 100 nM		< 100 nM
CN(c1ccc(-c2ccc(-c3cn[nH]c3)cn2)nn1)[C@@H]1C[C@H]2CC[C@@H](C1)N2 [Compound 217]	100 to 1000 nM	100 to 1000 nM	100 to 1000 nM	> 10000 nM	1000 to 10000 nM
COc1nc(-c2ccc(N(C)C3CC(C)(C)NC(C)(C)C3)nn2)ccc1-c1cnn(C)c1 [Compound 247, 6-[6-methoxy-5-(1-methylpyrazol-4-yl)pyridin-2-yl]-N-methyl-N-(2,2,6,6-tetramethylpiperidin-4-yl)pyridazin-3-amine]	100 to 1000 nM	100 to 1000 nM	< 100 nM		100 to 1000 nM
COc1nc(-c2ccc(OC3CC(C)(C)NC(C)(C)C3)nn2)ccc1-c1cn[nH]c1 [Compound 244, 3-[6-methoxy-5-(1H-pyrazol-4-yl)pyridin-2-yl]-6-[(2,2,6,6-tetramethylpiperidin-4-yl)oxy] pyridazine]	100 to 1000 nM	100 to 1000 nM	< 100 nM		100 to 1000 nM
COc1nc(-c2ccc(NC3CCNCC3)nn2)ccc1-c1cnn(C)n1 [Compound 270, 6-[6-methoxy-5-(2-methyl-1,2,3-triazol-4-yl)pyridin-2-yl]-N-(piperidin-4-yl)pyridazin-3-amine]	> 10000 nM	1000 to 10000 nM	1000 to 10000 nM		1000 to 10000 nM
COc1nc(-c2ccc(NC3CCNCC3)nn2)ccc1-c1cnn(C)c1 [Compound 257, 6-[6-methoxy-5-(1-methylpyrazol-4-yl)pyridin-2-yl]-N-(piperidin-4-yl)pyridazin-3-amine]	1000 to 10000 nM	1000 to 10000 nM	1000 to 10000 nM		1000 to 10000 nM
COc1nc(-c2ccc(N(C)C3C[C@H]4CC[C@@H](C3)N4)nn2)ccc1-c1cnn(C)n1 (stereo partly drawn) [Compound 269, N-{6-[6-methoxy-5-(2-methyl-1,2,3-triazol-4-yl)pyridin-2-yl]pyridazin-3-yl}-N-methyl-8-azabicyclo[3.2.1]octan-3-amine]	100 to 1000 nM	100 to 1000 nM	< 100 nM		100 to 1000 nM
COc1cc(-c2ccc(N(C)[C@@H]3C[C@H]4CC[C@@H](C3)N4)nn2)ncc1-c1cn[nH]c1 [Compound 248]	> 10000 nM	> 10000 nM	> 10000 nM		> 10000 nM
CN(c1ccc(-c2ccc(-c3cn[nH]c3)c(Cl)n2)nn1)[C@@H]1C[C@H]2CC[C@@H](C1)N2 [Compound 250, (exo)-N-{6-[6-chloro-5-(1H-pyrazol-4-yl)pyridin-2-yl]pyridazin-3-yl}-N-methyl-8-azabicyclo[3.2.1]octan-3-amine]	< 100 nM	< 100 nM	< 100 nM		100 to 1000 nM
COc1cc(-c2ccc(N(C)[C@@H]3C[C@H]4CC[C@@H](C3)N4)nn2)ccc1-c1cn[nH]c1 [Compound 208]	100 to 1000 nM	100 to 1000 nM	100 to 1000 nM	< 100 nM	100 to 1000 nM
COc1nc(-c2ccc(N(C)[C@@H]3C[C@H]4CC[C@@H](C3)N4)nn2)ccc1-c1cn[nH]c1 [Compound 133, (1R,3S,5S)—N-[6-[6-methoxy-5-(1H-pyrazol-4-yl)pyridin-2-yl]pyridazin-3-yl]-N-methyl-8-azabicyclo[3.2.1]octan-3-amine]	< 100 nM	100 to 1000 nM	< 100 nM	< 100 nM	< 100 nM
COc1nc(-c2ccc(N(C)[C@@H]3C[C@H]4CC[C@@H](C3)N4)nn2)ncc1-c1cn[nH]c1 [Compound 207]	1000 to 10000 nM	1000 to 10000 nM	1000 to 10000 nM	1000 to 10000 nM	1000 to 10000 nM
COc1nc(-c2ccc(O[C@@H]3C[C@H]4CC[C@@H](C3)N4)nn2)ccc1-c1cn(C)nn1 [Compound 290, 3-({6-[6-methoxy-5-(1-methyl-1,2,3-triazol-4-yl)pyridin-2-yl]pyridazin-3-yl}oxy)-8-azabicyclo[3.2.1]octane]	100 to 1000 nM	> 10000 nM	100 to 1000 nM		1000 to 10000 nM
